Marks after values point to notes of the source that are not given here.
What was measured:
E. coli 52 = test: Checkerboard broth microdilution MIC of cefepime alone and with taniborbactam; format: cell-based, Escherichia coli; settings: ESBL-producing E. coli; in vitro checkerboard
Excerpt: (§1) Four previously well-characterized cefepime-resistant isolates, namely one ESBL-producing E. coli, one ESBL-producing K. pneumoniae and two P. aeruginosa (one VIM- and one AmpC constitutively -producing), were used.

K. pneumoniae 59 [1] = test: as above; format: cell-based, Klebsiella pneumoniae; settings: ESBL-producing K. pneumoniae; in vitro checkerboard
Excerpt: as §1

[2] = tested on: β-lactamase–producing Enterobacterales and Pseudomonas aeruginosa; test: Neutropenic murine thigh infection model, all isolates together; format: in vivo
Description: […]. […] […]. All dosing regimens were performed in at least two animals per dosing regimen.
At t = 0 h, 2 h after infection, two mice were humanely euthanized to determine the initial number of cfu/thigh just before treatment. All other animals were euthanized at t = 24 h unless the welfare of the animals indicated earlier termination, following animal welfare regulations. Thighs were taken and moved to a pre-cooled 10 mL plastic tube (Transport Tube, Omnilabo, NL) containing 2 mL PBS (NaCl 8.00 g/L, Na2HPO4 * 2H2O 1.44 g/L, KH2PO4 0.26 g/L, pH 7.2–7.4). Subsequently, thighs were homogenized using the Ultra-Turrax homogenizer (IKA Labortechnik, Germany). For each thigh 10-fold dilution series were prepared and 3 × 10 µL per dilution were plated (Chromagar, bioMérieux, NL). The following day, colonies were counted and the number of cfu/thigh was calculated. The drug effect was then determined as the difference between the log10cfu/thigh values at t = 24 h and t = 0 h (mean value of two mice) expressed as Δlog10cfu, i.e. positive result for growth, zero for static effect and negative for reduction of inoculum (killing).
(§2) . […] Free drug concentrations were used in all calculations. […]

[3] = Protein binding, equilibrium dialysis chamber, LC-MS/MS; format: in vitro ADME
Excerpt: […]. […] […].
as §2

[4] = Single-dose plasma pharmacokinetics, s.c., infected neutropenic mice
Description: All animal procedures were carried out in the Animal Facility for Medical and Scientific Purposes of the University General Hospital Attikon (EL 25 BIO 014), Athens, Greece. […] Outbred female CD-1 mice, obtained by the Hellenic Pasteur Institute, Greece, and Charles River Laboratories Models and Services, Germany, were used at the age of 7–8 weeks, weighing 20–25 g. The animals were allowed to acclimatize for at least 5 days upon arrival and were housed under standard conditions with water and food supplied ad libitum. […] Infection was induced (Day 0) by intramuscular injection of 0.05 mL bacterial inoculum of approximately 10^5–10^6 cfu/thigh.
The dose was administered s.c. (0.1 mL) 2 h after infection (t = 0 h). Blood samples were collected in 1 mL K3EDTA tubes through orbital sinus bleeding under isoflurane anaesthesia. Animals were immediately euthanized through cervical dislocation and blood samples taken at timepoints 0, 0.08, 0.25, 0.5, 0.75, 1, 1.5, 2, 3, 4, 6, and 8 h after single dose injection. Blood samples were centrifuged immediately after collection in a pre-cooled centrifuge, and plasma was stored at −80°C. For each timepoint two animals were euthanized in order to have duplicates for each condition.
The Cmax values were calculated from raw data and the AUCs were calculated using the trapezoidal rule. […] Equations used in the program were the classical polyexponential equations Ci(t) = PolyExp(i, n, t), where i = number of the compartments, n = number of doses and t = time from last dose (http://www.boomer.org/c/p4/c19/c19.pdf). The %fT > Ct was then determined using a bisectional rootfinder for intersections between simulated curve and concentration, and calculating the difference between intersection values. Free drug concentrations were used in all calculations.
For taniborbactam, a population pharmacokinetic model was developed using nonlinear mixed-effects modelling (NONMEM). The analysis was performed on the natural logarithm of the concentrations using the FOCE method with INTERACTION. All mice were assumed to weigh 1kg, resulting in PK parameters corresponding to a per kg base. […] Tools used to evaluate and visualize the model were RStudio (v0.98.1049), R (v3.1.2), XPose (v4.5.3) and PsN (v4.6.0), all with the graphical interface Pirana (v2.9.0).
To determine the structural pharmacokinetic model 1-, 2- and 3-compartment models were tested. Pharmacokinetic parameters were estimated in terms of central and peripheral volume of distribution (Vc and Vp), clearance (CL), and intercompartmental clearance (Q). Addition of interindividual variability (IPV), described using an exponential eta model, was evaluated for each pharmacokinetic parameter. The covariance between values for IPV was estimated using a […] matrix. Residual variability between observed and predicted plasma concentrations was described using an additional error model for logarithmically transformed data. The minimum value of objective function (OFV) was used as a criterion for model selection. […] Model adequacy was further evaluated by using various residual plots (‘goodness-of-fit’ plots) and values of random effects in variances. In the second step relationships between pharmacokinetic parameters and potential covariates were investigated. […] Dose covariates were modelled by using an exponential model, place of infection was modelled proportionally. Criteria for the inclusion of covariates in the model were the OFV, results of graphical evaluation of the parameter-covariate relationship and the decrease in parameter variability.
Three procedures were used to validate the final model. As an internal validation method, a bootstrap resampling method was used. Bootstrap datasets (n=1000) were generated by sampling randomly from the original dataset with replacement. Parameters were estimated for each of the replicate datasets using the developed model.

K. pneumoniae 59 [5] = test: Neutropenic murine thigh infection model; format: in vivo, Klebsiella pneumoniae
Description: All dosing regimens were performed in at least two animals per dosing regimen.
At t = 0 h, 2 h after infection, two mice were humanely euthanized to determine the initial number of cfu/thigh just before treatment. […] Subsequently, thighs were homogenized using the Ultra-Turrax homogenizer (IKA Labortechnik, Germany). For each thigh 10-fold dilution series were prepared and 3 × 10 µL per dilution were plated (Chromagar, bioMérieux, NL). The following day, colonies were counted and the number of cfu/thigh was calculated.
Free drug concentrations were used in all calculations.

[6] = Ct = taniborbactam concentration where reversal of cefepime resistance was found in vitro
[7] = taniborbactam, two-compartment model

For `NCCN[C@H]1CC[C@H](CC(=O)N[C@H]2Cc3cccc(C(=O)O)c3OB2O)CC1` [taniborbactam, Taniborbactam], the “Taniborbactam concentration at which reversal of phenotypic resistance to cefepime was observed” value (E. coli 52) was at most 0.03 mg/L, the “Taniborbactam concentration at which reversal of phenotypic resistance to cefepime was observed” value (K. pneumoniae 59 [1]) was 0.25 mg/L and the “%fT > Ct of taniborbactam associated with 1 log10 kill” value [2, 6] was 60%–100%. For the same compound, the “%fT > Ct of taniborbactam associated with stasis” value [2, 6] was 40%–50%, the “Effect of taniborbactam on cefepime's static effect” value ([2]; all isolates, combined with cefepime) was “restored cefepime’s static effect against all isolates” and the “Taniborbactam TDDs at which cefepime regained its static effect” value ([2]; all isolates, with marginally ineffective doses of cefepime) was 3.2 to 105 mg/kg. For the same compound, the “Taniborbactam TDDs at which cefepime regained its 1 log10 kill effect” value ([2]; all strains except K. pneumoniae) was 26–293 mg/kg, the “q2h regimens more effective than q8h regimens” value ([2]; taniborbactam dose fractionation with cefepime q2h) was over 10 fold and the Protein binding [3] was 19.6%. For the same compound, the “Absorption rate (h-1), Bootstrap” value ([4]; 772 successful bootstrap runs) was 20 h⁻¹, the “Central volume of distribution (L/Kg), Bootstrap median (95-percentile range)” value ([4]; 772 successful bootstrap runs) was 0.63 (0.58-0.68) L/Kg and the “Clearance (L/h/Kg), Bootstrap median (95-percentile range)” value ([4]; 772 successful bootstrap runs) was 1.49 (1.23-1.57) L/h/Kg. The “IPV (%) on clearance, Bootstrap median (95-percentile range)” value ([4]; 772 successful bootstrap runs) was 14 (8-19) %, the “IPV (%) on intercompartmental clearance, Bootstrap median (95-percentile range)” value ([4]; 772 successful bootstrap runs) was 59 (40-77) % and the “Intercompartmental clearance (L/h), Bootstrap median (95-percentile range)” value ([4]; 772 successful bootstrap runs) was 0.11 (0.08-0.35) L/h. For the same compound, the “Peripheral volume of distribution (L/Kg), Bootstrap median (95-percentile range)” value ([4]; 772 successful bootstrap runs) was 0.94 (0.46-13.0) L/Kg, the t1/2a ([4]; central compartment, estimated) was 17.6 min and the “IPV (%) on clearance, Estimation, value (RSE)” value ([4]; interindividual variability of CL) was 14.2 (14%). For the same compound, the “IPV (%) on intercompartmental clearance, Estimation, value (RSE)” value ([4]; interindividual variability of Q) was 60.7 (13%), the t1/2b ([4]; peripheral compartment, estimated) was 45 min and the “Central volume of distribution (L/Kg), Estimation, value (RSE)” value ([4]; population PK model (NONMEM)) was 0.628 (4%) L/Kg. For the same compound, the “Clearance (L/h/Kg), Estimation, value (RSE)” value ([4]; population PK model (NONMEM)) was 1.49 (3%) L/h/Kg, the “Peripheral volume of distribution (L/Kg), Estimation, value (RSE)” value ([4]; population PK model (NONMEM)) was 0.926 (1%) L/Kg and the “Absorption rate (h-1), Estimation” value ([4]; population PK model (NONMEM), fixed) was 20 (fixed) h-1. For the same compound, the “Intercompartmental clearance (L/h), Estimation, value (RSE)” value ([4]; population PK model (NONMEM), per kg) was 0.109 (10%) L/h, the Vc [4, 7] was 0.628 L/kg and the “volume of peripheral compartment Vp” value [4, 7] was 0.926 L/kg. For the same compound, the Ka ([4]; taniborbactam, two-compartment model, fixed value) was 20 h⁻¹, the “Stasis: Taniborbactam %ƒT > Ct 0.015 mg/L” value (K. pneumoniae 59 [5]; + cefepime q2h 4 mg/kg, Ct 0.015 mg/L) was 100% and the “1 log kill: Taniborbactam %ƒT > Ct 0.015 mg/L” value (K. pneumoniae 59 [5]; + cefepime q2h 4 mg/kg, Ct 0.015 mg/L, at extrapolated dose) was 100%. The “Stasis: Taniborbactam %ƒT > Ct 0.03 mg/L” value (K. pneumoniae 59 [5]; + cefepime q2h 4 mg/kg, Ct 0.03 mg/L) was 100%, the “1 log kill: Taniborbactam %ƒT > Ct 0.03 mg/L” value (K. pneumoniae 59 [5]; + cefepime q2h 4 mg/kg, Ct 0.03 mg/L, at extrapolated dose) was 100% and the “Stasis: Taniborbactam %ƒT > Ct 0.06 mg/L” value (K. pneumoniae 59 [5]; + cefepime q2h 4 mg/kg, Ct 0.06 mg/L) was 86.2%. For the same compound, the “1 log kill: Taniborbactam %ƒT > Ct 0.06 mg/L” value (K. pneumoniae 59 [5]; + cefepime q2h 4 mg/kg, Ct 0.06 mg/L, at extrapolated dose) was 100%, the “Stasis: Taniborbactam %ƒT > Ct 0.125 mg/L” value (K. pneumoniae 59 [5]; + cefepime q2h 4 mg/kg, Ct 0.125 mg/L) was 69.3% and the “1 log kill: Taniborbactam %ƒT > Ct 0.125 mg/L” value (K. pneumoniae 59 [5]; + cefepime q2h 4 mg/kg, Ct 0.125 mg/L, at extrapolated dose) was 100%. For the same compound, the “Stasis: Taniborbactam %ƒT > Ct 0.25 mg/L” value (K. pneumoniae 59 [5]; + cefepime q2h 4 mg/kg, Ct 0.25 mg/L) was 52.4%, the “1 log kill: Taniborbactam %ƒT > Ct 0.25 mg/L” value (K. pneumoniae 59 [5]; + cefepime q2h 4 mg/kg, Ct 0.25 mg/L, at extrapolated dose) was 100% and the “Stasis: Taniborbactam %ƒT > Ct 0.5 mg/L” value (K. pneumoniae 59 [5]; + cefepime q2h 4 mg/kg, Ct 0.5 mg/L) was 35.5%. The “1 log kill: Taniborbactam %ƒT > Ct 0.5 mg/L” value (K. pneumoniae 59 [5]; + cefepime q2h 4 mg/kg, Ct 0.5 mg/L, at extrapolated dose) was 100%, the “Stasis: Taniborbactam %ƒT > Ct 1 mg/L” value (K. pneumoniae 59 [5]; + cefepime q2h 4 mg/kg, Ct 1 mg/L) was 18.6% and the “1 log kill: Taniborbactam %ƒT > Ct 1 mg/L” value (K. pneumoniae 59 [5]; + cefepime q2h 4 mg/kg, Ct 1 mg/L, at extrapolated dose) was 99.01%. For the same compound, the “Stasis: Taniborbactam %ƒT > Ct 2 mg/L” value (K. pneumoniae 59 [5]; + cefepime q2h 4 mg/kg, Ct 2 mg/L) was 0%, the “1 log kill: Taniborbactam %ƒT > Ct 2 mg/L” value (K. pneumoniae 59 [5]; + cefepime q2h 4 mg/kg, Ct 2 mg/L, at extrapolated dose) was 83.25% and the “Stasis: Taniborbactam %ƒT > Ct 4 mg/L” value (K. pneumoniae 59 [5]; + cefepime q2h 4 mg/kg, Ct 4 mg/L) was 0%. For the same compound, the “1 log kill: Taniborbactam %ƒT > Ct 4 mg/L” value (K. pneumoniae 59 [5]; + cefepime q2h 4 mg/kg, Ct 4 mg/L, at extrapolated dose) was 66.35%, the “Stasis: Taniborbactam total daily dose” value (K. pneumoniae 59 [5]; taniborbactam q2h + cefepime q2h 4 mg/kg) was 24.00 mg/kg and the “1 log kill: Taniborbactam total daily dose, mg/kg” value (K. pneumoniae 59 [5]; taniborbactam q2h + cefepime q2h 4 mg/kg, extrapolated dose, effect not reached within tested doses) was “(680)^b mg/kg”.
